Source: patent US20070219214A1, “Dual NK2/NK3-antagonists, pharmaceutical compositions comprising them, and processes for their preparation” (Solvay pharmaceuticals GmbH, priority 2006, published 2007)

Legend:
NK3-receptor = target: T1, NK3-receptor (Cavia porcellus, UniProt P30098); experiment: NK-3-receptor-antagonistic effectiveness in vivo, senktide-induced hypertension in guinea pigs; conditions: guinea pig, iv; read-out: ID50 (iv), inhibition of blood pressure
T1 construct: from tissue; host or cells: whole animal (Dunkin Hartley guinea pigs), in vivo
T1 sequence (P30098 1-440): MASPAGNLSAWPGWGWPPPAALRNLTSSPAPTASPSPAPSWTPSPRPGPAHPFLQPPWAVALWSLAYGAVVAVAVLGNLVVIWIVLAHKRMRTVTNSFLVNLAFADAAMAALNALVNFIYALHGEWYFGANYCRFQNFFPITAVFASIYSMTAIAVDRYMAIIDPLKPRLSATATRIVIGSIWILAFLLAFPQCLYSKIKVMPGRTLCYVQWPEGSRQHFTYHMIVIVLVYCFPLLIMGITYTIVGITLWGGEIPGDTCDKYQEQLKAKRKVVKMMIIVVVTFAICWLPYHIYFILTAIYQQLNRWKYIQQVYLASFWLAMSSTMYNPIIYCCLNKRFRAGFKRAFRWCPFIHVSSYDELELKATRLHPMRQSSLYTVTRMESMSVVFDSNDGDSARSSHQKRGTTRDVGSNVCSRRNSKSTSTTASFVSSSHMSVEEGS
Protocol: 9. Determination of the NK-3-Receptor-Antagonistic Effectiveness of the Test Substances In Vivo (Reduction of Blood Pressure in Guinea-Pigs with Senktide-Induced Hypertension)
NK3 agonists increase the blood pressure in guinea pigs. The senktide-induced hypertension can be antagonized by administering compounds with NK3-antagonistic properties. Measuring the level of hypertension is indicative of the degree of activity of the test compounds. The effect of the tested compound is assessed in the same experiment to exclude an additional hypertensional effect.
Male Dunkin Hartley guinea pigs with a body weight between 450 and 550 g were anesthetized with Ketamin (200 mg/kg i.m.; Aescoket 10%) and the left carotid artery and left jugular vein were cannulated for blood pressure measurement and drug application, respectively. The animals were allowed to breathe spontaneously. Blood pressure was measured with a strain gauge transducer connected to a computer via an amplifier.
For oral administration, vehicle (1% methylcellulose) or test compound was administered in a dose volume of 5 ml/kg. Forty five minutes thereafter, anesthesia was induced and the carotid artery and jugular vein were cannulated.
For intravenous administration, the test compounds were dissolved in 40% hydroxypropyl-β-cyclodextrine (HPCD) containing 10% DMSO, diluted with saline and administered intravenously in cumulative dose ranges. A vehicle group of animals received the corresponding HPCD/DMSO solutions instead of the test compound. For oral administration, the test compound was suspended in 1% methylcellulose. A vehicle group of animals received the corresponding […] of the test compound.

human NK2-receptor [1] = target: T2, human NK2-receptor (Homo sapiens, UniProt P21452); experiment: Functional cellular test, Ca2+ measurements using FLIPR for NK2 activity; conditions: for pA2 data for NK2: CHO cells, human NK2, FLIPR Ca2+, agonist NKA 10^-7 M;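 for all read-outs here: CHO cells stably expressing the human receptor, loaded with a calcium dye, antagonist inhibition of ligand-evoked intracellular calcium rise read as peak fluorescence change on FLIPR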
T2 sequence (P21452 1-398): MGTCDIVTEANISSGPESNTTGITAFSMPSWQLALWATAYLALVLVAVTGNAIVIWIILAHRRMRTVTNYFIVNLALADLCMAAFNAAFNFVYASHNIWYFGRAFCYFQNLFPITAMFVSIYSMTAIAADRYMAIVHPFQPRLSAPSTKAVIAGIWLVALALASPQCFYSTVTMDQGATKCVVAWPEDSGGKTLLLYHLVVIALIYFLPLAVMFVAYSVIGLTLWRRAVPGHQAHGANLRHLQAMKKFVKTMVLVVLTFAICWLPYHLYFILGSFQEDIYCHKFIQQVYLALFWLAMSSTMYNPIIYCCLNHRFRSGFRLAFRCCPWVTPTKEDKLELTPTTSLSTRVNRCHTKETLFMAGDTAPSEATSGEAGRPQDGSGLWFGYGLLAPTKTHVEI

human NK2-receptor [2] = target: T2, human NK2-receptor; experiment: Binding potency of the test substances to NK2-receptors in vitro ([3H]-SR 48968 displacement); design: expressed in transfected cells; host or cells: CHO cells (membrane preparation); conditions: human NK2-receptor in CHO cell membranes, [3H]-SR 48968 (saredutant), average of at least three measurements
Summary of the method: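 Membranes from CHO cells stably expressing the receptor were incubated with [3H]-saredutant plus test compound, then filtered and counted by liquid scintillation. Nonspecific binding defined with 0.1 μmol/l unlabeled saredutant. IC50 from displacement converted to Ki via Cheng-Prusoff and reported as pKi, averaged over measurements.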

human NK3 receptor [3] = target: T3, human NK3 receptor (Homo sapiens, UniProt P29371); experiment: Functional cellular test, Ca2+ measurements using aequorin for NK3 activity; format: cell-based; design: expressed in transfected cells; host or cells: cell line co-expressing mitochondrially targeted apoaequorin (CHO according to b76/b77); conditions: for pA2 data for NK3: cell line with human NK3 receptor and apoaequorin, agonist senktide 5x10-8 M
T3 sequence (P29371 1-465): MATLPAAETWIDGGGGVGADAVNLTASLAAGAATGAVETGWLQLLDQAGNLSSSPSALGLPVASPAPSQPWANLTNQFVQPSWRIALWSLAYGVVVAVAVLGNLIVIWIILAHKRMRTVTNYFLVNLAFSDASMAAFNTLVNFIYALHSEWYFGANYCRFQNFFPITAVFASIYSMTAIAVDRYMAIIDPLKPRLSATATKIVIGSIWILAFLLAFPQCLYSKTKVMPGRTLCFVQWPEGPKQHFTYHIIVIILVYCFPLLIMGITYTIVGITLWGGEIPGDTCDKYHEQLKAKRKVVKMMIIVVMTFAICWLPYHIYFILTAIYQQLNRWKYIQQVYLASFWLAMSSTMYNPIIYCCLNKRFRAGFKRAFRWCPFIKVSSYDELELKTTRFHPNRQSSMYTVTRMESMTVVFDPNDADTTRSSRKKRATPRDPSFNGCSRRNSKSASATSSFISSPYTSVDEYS

human NK1-receptor [4] = target: T4, human NK1-receptor (Homo sapiens, UniProt P25103); experiment: Binding potency of the test substances to NK1-receptors in vitro ([3H]-Substance P displacement); conditions: human NK1-receptor in CHO cell membranes, average of at least three measurements
T4 sequence (P25103 whole entry): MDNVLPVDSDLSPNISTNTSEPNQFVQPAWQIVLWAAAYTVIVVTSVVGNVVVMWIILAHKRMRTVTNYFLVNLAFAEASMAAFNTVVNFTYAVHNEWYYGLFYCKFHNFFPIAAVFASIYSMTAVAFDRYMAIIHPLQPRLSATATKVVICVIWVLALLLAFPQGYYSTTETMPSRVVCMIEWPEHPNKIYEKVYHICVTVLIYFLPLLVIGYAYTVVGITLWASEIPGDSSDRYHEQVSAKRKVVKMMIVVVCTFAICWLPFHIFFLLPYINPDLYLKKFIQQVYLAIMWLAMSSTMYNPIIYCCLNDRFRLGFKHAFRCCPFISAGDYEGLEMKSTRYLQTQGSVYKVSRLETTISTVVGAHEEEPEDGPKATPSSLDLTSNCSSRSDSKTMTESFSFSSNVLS
Protocol: 1. Determination of the Binding Potency of the Test Substances to NK1-Receptors in Vitro
The affinity of test compounds for NK1-receptors can be determined by measuring the ability of the test compound to displace a radiolabeled ligand from its specific binding site. The tests were performed at Solvay Pharmaceuticals, Weesp, The Netherlands.
Separation of bound radioactivity from free radioactivity was done by filtration through glass fiber filters (Packard GF/B) with several washings with ice-cold buffer solution. Bound radioactivity was measured with a liquid scintillation counter (total binding).
The inhibition constant (Ki) was calculated according to the Cheng-Prusoff equation, and listed as its negative logarithmic value (pKi). The pKi value describes the potency of a test compound to bind to a receptor.

NK1-receptor = target: T5, NK1-receptor (Cavia porcellus, UniProt P30547); experiment: NK1-receptor-antagonistic effectiveness in vivo, NKA-induced early hypotension in anaesthetised guinea pigs; conditions: guinea pig, NKA 200 pmol/animal i.v.; for ED50 iv after 1 min (cumulative), NK1 (early hypotension): intravenous administration
T5 construct: from tissue; host or cells: whole animal (Pirbright-White guinea pigs), in vivo
T5 sequence (P30547 whole entry): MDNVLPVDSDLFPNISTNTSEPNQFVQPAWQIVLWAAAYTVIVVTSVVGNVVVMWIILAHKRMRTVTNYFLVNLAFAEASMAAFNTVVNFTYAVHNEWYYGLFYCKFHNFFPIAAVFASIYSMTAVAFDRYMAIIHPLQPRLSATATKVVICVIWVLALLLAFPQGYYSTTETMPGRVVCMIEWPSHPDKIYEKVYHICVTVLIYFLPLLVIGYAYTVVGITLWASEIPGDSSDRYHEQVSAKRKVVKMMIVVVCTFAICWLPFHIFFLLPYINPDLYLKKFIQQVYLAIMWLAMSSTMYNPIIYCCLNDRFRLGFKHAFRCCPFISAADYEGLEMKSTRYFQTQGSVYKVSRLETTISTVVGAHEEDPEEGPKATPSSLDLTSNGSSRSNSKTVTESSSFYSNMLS
Text: (§1) 10. Determination of the NK1- and NK2-Receptor-Antagonistic Effectiveness of the Test Substances In Vivo
(§2) The NK1- and NK2-antagonistic activities of the test substances were investigated in anaesthetised guinea pigs in each case after intravenous (=i.v.) and oral (=p.o.) administration in vivo. With the present test model it is possible to detect both NK2-antagonistic effects in three different organ systems (respiratory tracts, colon and circulation) and NK1-antagonistic effects (rapid drop in blood pressure) in an animal simultaneously.
(§3) Pirbright-White guinea pigs of a body weight of 500-700 g were anaesthetised with ketamine/xylazine (67/13 mg/kg subcutaneously, initial dose, further doses administered as required). The animals were provided with an intravenous catheter in order to administer the substance and an intra-arterial catheter to measure the blood pressure. The animals were artificially ventilated via a tracheal cannula and the respiratory pressure was recorded by means of a pressure transducer. A balloon was introduced into the distal colon of the animals for manometric recording of colon motility by means of a pressure transducer. Blood pressure, heart rate, respiratory pressure and colonic pressure were measured continuously for each animal and plotted on a recorder and by means of a digital data-processing system. […] The second phase of delayed hypotension (=phase of maximum hypotension after 2-5 min.) on the other hand is mediated via NK2-receptors, since they can be blocked by specific NK2-receptor antagonists.
(§4) These ED50 values obtained from cumulative dose effect curves are plotted in Table 13.

NK2-receptor = target: T6, NK2-receptor (Cavia porcellus, UniProt Q64077); experiment: NK2-receptor-antagonistic effectiveness in vivo, NKA-induced late hypotension, bronchoconstriction and colonic pressure in anaesthetised guinea pigs; conditions: guinea pig; for ED50 iv after 1 min (cumulative), NK2 (bronchoconstriction) / ED50 iv after 1 min (cumulative), NK2 (colonic motility) / ED50 iv after 1 min (cumulative), NK2 (late hypotension): intravenous administration
T6 construct: from tissue; host or cells: whole animal (Pirbright-White guinea pigs), in vivo
T6 sequence (Q64077 1-402): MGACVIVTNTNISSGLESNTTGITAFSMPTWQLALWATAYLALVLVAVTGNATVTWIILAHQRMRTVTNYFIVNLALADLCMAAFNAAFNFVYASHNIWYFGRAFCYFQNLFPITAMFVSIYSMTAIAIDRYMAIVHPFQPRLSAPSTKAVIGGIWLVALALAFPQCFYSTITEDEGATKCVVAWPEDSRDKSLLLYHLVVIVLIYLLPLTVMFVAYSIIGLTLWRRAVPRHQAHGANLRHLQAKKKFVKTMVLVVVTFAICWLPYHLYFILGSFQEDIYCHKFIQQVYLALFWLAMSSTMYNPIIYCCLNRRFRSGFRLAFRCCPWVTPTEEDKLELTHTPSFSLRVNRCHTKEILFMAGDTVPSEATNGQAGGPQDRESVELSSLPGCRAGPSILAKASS
Text: as §1, §2, §3, §4

human NK1-receptor [5] = target: T4, human NK1-receptor; experiment: Functional cellular test, Ca2+ measurements using FLIPR for NK1 activity; format: cell-based; design: expressed in transfected cells; host or cells: CHO fibroblast cells; conditions: CHO cells, human NK1, FLIPR Ca2+, agonist substance P 10^-8 M
Text: The NK receptor is coupled to Gq.
All steps were done under sterile conditions.

human NK3 receptor [6] = target: T3, human NK3 receptor; experiment: Binding potency of the test substances to NK3-receptors in vitro ([3H]-SR 142801 displacement); design: expressed in transfected cells; host or cells: CHO cells (membrane preparation); conditions: human NK3-receptor in CHO cell membranes, [3H]-SR 142801 (osanetant); average of at least three measurements
Summary of the method: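 [3H]-osanetant displacement on membranes from CHO cells stably expressing the human receptor, with bound ligand separated by filtration and counted by scintillation. Nonspecific binding defined with 1 μmol/l unlabeled osanetant. IC50 converted to Ki by Cheng-Prusoff and reported as pKi, averaged over measurements.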

[7] = NKA 200 pmol/animal i.v., oral administration

| SMILES | ED50 (NK3-receptor) | Kb (human NK2-receptor [1]) | Ki (human NK2-receptor [2]; read-out: pKi, binding potency to NK2-receptors (converted)) | Kb (human NK3 receptor [3]; read-out: pA2 data for NK3 (converted)) | pKi, binding potency to NK1-receptors (human NK1-receptor [4]) | ED50 iv after 1 min (cumulative), NK1 (early hypotension) (NK1-receptor) | ED50 AUC1-180 min oral, NK1 (early hypotension) (NK1-receptor; oral administration) | ED50 iv after 1 min (cumulative), NK2 (bronchoconstriction) (NK2-receptor; NKA 200 pmol/animal i.v.) | ED50 iv after 1 min (cumulative), NK2 (colonic motility) (NK2-receptor; NKA 200 pmol/animal i.v.) | ED50 iv after 1 min (cumulative), NK2 (late hypotension) (NK2-receptor; NKA 200 pmol/animal i.v.) | ED50 AUC1-180 min oral, NK2 (bronchoconstriction) (NK2-receptor; [7]) | ED50 AUC1-180 min oral, NK2 (colonic motility) (NK2-receptor; [7]) | ED50 AUC1-180 min oral, NK2 (late hypotension) (NK2-receptor; [7]) | oral activity on the NK2, in words (NK2-receptor; oral administration) | pA2 data for NK1 (human NK1-receptor [5]) | pA2 data for NK2 (human NK2-receptor [1]) | pA2 data for NK3 (human NK3 receptor [3]) | pKi, binding potency to NK3-receptors (human NK3 receptor [6]) | pKi, binding potency to NK2-receptors (human NK2-receptor [2]) |
| --- | --- | --- | --- | --- | --- | --- | --- | --- | --- | --- | --- | --- | --- | --- | --- | --- | --- | --- | --- |
| CNC(=O)C1(N2CCCCC2)CCN(CC[C@H](CN(C)C(=O)c2ccccc2)c2ccc(Cl)c(Cl)c2)CC1 [compound 2] | 1.98 mg/kg | 0.501 nM | 0.398 nM | 31.6 nM | – | – | – | – | – | – | – | – | – | – | – | – | – | – | – |
| CN(C)C(=O)C1(N2CCCCC2)CCN(CC[C@H](CN(C)C(=O)c2ccc(F)c(Cl)c2)c2ccc(Cl)c(Cl)c2)CC1 [compound 8] | – | – | – | – | 7.4 | >1.462 µmol/kg | >3.2 µmol/kg | 0.731 µmol/kg | 0.294 µmol/kg | 1.113 µmol/kg | >3.2 µmol/kg | >3.2 µmol/kg | >3.2 µmol/kg | active orally on the NK2 | 7.1 | 8.6 | 8.4 | – | – |
| CN(C)C(=O)C1(N2CCCCC2)CCN(CC[C@H](CN(C)C(=O)c2cc(F)cc(F)c2)c2ccc(Cl)c(Cl)c2)CC1 [compound 9] | – | – | – | – | 7.6 | >1.462 µmol/kg | – | 0.058 µmol/kg | 0.053 µmol/kg | 0.108 µmol/kg | – | – | – | – | 8.0 | 8.6 | 8.0 | 8.4 | – |
| CN(C)C(=O)C1(N2CCCCC2)CCN(CC[C@H](CN(C)C(=O)c2ccc(F)c(F)c2F)c2ccc(Cl)c(Cl)c2)CC1 [compound 16] | – | – | – | – | – | >1.462 µmol/kg | – | 0.38 µmol/kg | 0.132 µmol/kg | 0.34 µmol/kg | – | – | – | – | – | 8.3 | 7.9 | 7.8 | 9.0 |
